Assay results published in patent US20220274967A1, “BCAT MODULATION” (Icagen, LLC, priority 2019, published 2022).

Tests used:
BCAT2 = biological target: T1, BCAT2 (Homo sapiens, UniProt O15382); test: BCAT2 enzyme inhibition (human); format: biochemical
T1 sequence (O15382 28-392): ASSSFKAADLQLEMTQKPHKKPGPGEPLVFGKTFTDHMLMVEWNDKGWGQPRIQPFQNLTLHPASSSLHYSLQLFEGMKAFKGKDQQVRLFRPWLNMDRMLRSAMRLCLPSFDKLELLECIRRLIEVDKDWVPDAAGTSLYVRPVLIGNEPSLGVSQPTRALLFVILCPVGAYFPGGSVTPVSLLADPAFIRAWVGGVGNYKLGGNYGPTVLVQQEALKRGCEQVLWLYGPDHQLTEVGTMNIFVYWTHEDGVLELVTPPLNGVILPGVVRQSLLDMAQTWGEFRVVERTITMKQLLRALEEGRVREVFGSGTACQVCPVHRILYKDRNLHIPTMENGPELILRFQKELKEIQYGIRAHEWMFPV
Method: In further embodiments, the functional modulation of BCAT2 is assayed using a cell-free assay. In various embodiments, the cell-free assay is an enzyme-coupled fluorescent assay. For example, the disclosure contemplates use of an assay that monitors the production of L-glutamate from branch-chain amino acids and α-ketoglutarate through the coupling of hBCATm activity to two additional enzymes, L-Glutamate Oxidase (L-GOx) and Horseradish Peroxidase (HRP). Specifically, L-GOx catabolizes L-glutamate to generate α-ketoglutarate and […], the latter being utilized by HRP and leading to the formation of fluorescent resorufin from the redox-sensitive dye Amplex Red. In some embodiments, the test compound is classified as a candidate compound if a decrease in L-glutamate is measured. In further embodiments, the test compound is classified as a candidate compound if a decrease in α-ketoglutarate is measured.

BCAT1 = biological target: T2, BCAT1 (Homo sapiens, UniProt P54687); test: BCAT1 enzyme inhibition (human), Glutamate Glo luminescence; format: biochemical
T2 sequence (P54687 1-386): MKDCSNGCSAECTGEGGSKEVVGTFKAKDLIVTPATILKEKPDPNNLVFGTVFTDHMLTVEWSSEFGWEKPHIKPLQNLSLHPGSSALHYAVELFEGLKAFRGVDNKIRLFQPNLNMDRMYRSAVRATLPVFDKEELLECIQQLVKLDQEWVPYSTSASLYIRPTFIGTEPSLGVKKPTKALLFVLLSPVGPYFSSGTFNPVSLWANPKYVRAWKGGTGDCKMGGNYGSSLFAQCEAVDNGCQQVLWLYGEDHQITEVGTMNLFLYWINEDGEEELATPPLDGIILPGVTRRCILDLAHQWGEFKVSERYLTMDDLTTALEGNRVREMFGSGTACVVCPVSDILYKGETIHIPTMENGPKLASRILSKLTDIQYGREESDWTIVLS
Method: The BCAT1 inhibitory activity of selected compounds of the present disclosure were also evaluated. Compounds were prepared as up to 10 mM stock solutions generally using DMSO as the vehicle. 10-point dose response curves were generated using the Echo-550 (Labcyte) acoustic dispenser. Compound source plates ([…]) were made by serially diluting compound stocks to create 1 mM, 0.1 mM, and 0.01 mM solutions in DMSO into Echo certified LDV plates. The Echo then serially spotted 100% DMSO stock solutions into source dose response plates to generate a semi-log fold dilution scheme. 100% DMSO was added to the spotted dose response plates to bring the final volume to 5 μL, creating a 333× stock plate. 120 nL of the dose response stock plate was then spotted into the assay plate. 10 μL of assay buffer (50 mM Tris with 0.05% TWEEN-20) was then added to the plates resulting in a 4× working concentration in the assay plate. Final assay test concentration range was 3 μM to 0.0001 μM with a final DMSO concentration of 0.3%.
BCAT1 enzyme stock was first diluted to a 4× working concentration of 0.24 μg/mL in assay buffer (final assay concentration is 0.06 ug/ml). 10 μL of the 4×BCAT1 solution was then added to the previously prepared assay plate containing test compound or controls, and incubated at room temperature, protected from light, for either 10 or 60 minutes. After the compound incubation period, 20 μL of assay buffer plus 2× substrate is added to all wells (Final assay concentration of substrates is 300 μM L-leucine and 250 μM alpha-ketoglutaric acid). Enzyme reaction was then incubated for 10 minutes at room temperature. After the 10 minute incubation, the enzymatic reaction was halted with the addition of 5 μL of 0.6N HCl and incubated for 1 min. 5 μL of 1M Tris (pH 8.0) was then added to neutralize pH. 12.5 μL of the quenched assay volume was then transferred to a white, 384 well plate and 12.5 μL of Glutamate detection reagent was added (detection reagent prepared per Promega Glutamate Glo kit instructions). Plates were then incubated for 30 minutes at room temperature, protected from light. After glutamate detection incubation period, luminescence was read on BMG Novostar and relative light units was measured and exported for analysis.
Compound modulation of BCAT1 enzymatic activity was determined as follows. IC50 values were calculated in ActivityBase, using a 4-parameter fit equation. Data was normalized to maximum inhibition form the reference agent VS558CSA (at 10 μM). Relative light units were exported for analysis and % inhibition values for each well were calculated using the following formula: […]

SMILES	IC50 (BCAT2)	IC50 (BCAT1)
N#Cc1cc2nc(-c3ccccc3C#N)n(C3CCCC(NC(=O)c4ccc(Br)s4)C3)c2cn1 (stereo not shown) [Compound 306]	< 100 nM	≥ 1000 nM
CNC(=O)c1ccc2c(c1)nc(-c1ncccn1)n2[C@H]1CCC[C@@H](NC(=O)c2ccc(Br)s2)C1 [Compound 147]	< 100 nM	≥ 1000 nM
CNC(=O)c1cc2nc(-c3c(F)ccc(F)c3O)n([C@H]3CCC[C@@H](NC(=O)c4ccc(Cl)s4)C3)c2cc1F [Compound 231]	< 100 nM	≥ 1000 nM
CNC(=O)c1cc2nc(-c3c(F)ccc(F)c3O)n([C@H]3CCC[C@@H](NC(=O)c4ccc(Br)s4)C3)c2cc1F [Compound 233]	< 100 nM	500 to 1000 nM
CNC(=O)c1cc2nc(-c3ncccc3F)n([C@H]3CCC[C@@H](NC(=O)c4ccc(Br)s4)C3)c2cc1Cl [Compound 237]	100 to 500 nM	≥ 1000 nM
O=C(N[C@@H]1CCC[C@H](n2c(-c3ncccc3F)nc3ccncc32)C1)c1ccc(Br)s1 [Compound 298]	< 100 nM	500 to 1000 nM
CNC(=O)c1ccc2c(c1)nc(-c1ccccn1)n2[C@H]1CCC[C@@H](NC(=O)c2sc(Br)cc2F)C1 [Compound 241]	< 100 nM	≥ 1000 nM
CNC(=O)c1cc2nc(-c3c(F)ccc(F)c3O)n([C@H]3CCC[C@@H](NC(=O)c4ccc(C#N)s4)C3)c2cc1F [Compound 232]	< 100 nM	≥ 1000 nM
CNC(=O)c1cc2nc(-c3ncccc3F)n([C@H]3CCC[C@@H](NC(=O)c4ccc(Cl)s4)C3)c2cc1Cl [Compound 236]	100 to 500 nM	≥ 1000 nM
O=C(N[C@@H]1CCC[C@H](n2c(-c3ccccn3)nc3ccncc32)C1)c1ccc(Br)s1 [Compound 294]	100 to 500 nM	≥ 1000 nM
CNC(=O)c1ccc2c(c1)nc(-c1ccccn1)n2[C@H]1CCC[C@@H](NC(=O)c2sc(Cl)cc2OC)C1 [Compound 243]	100 to 500 nM	≥ 1000 nM
N#Cc1ccc2c(c1)nc(-c1ccccn1)n2[C@H]1CCC[C@@H](NC(=O)c2ccc(Cl)s2)C1 [Compound 195]	< 100 nM	≥ 1000 nM
O=C(N[C@@H]1CCC[C@H](n2c(-c3ccccn3)nc3cnc(F)cc32)C1)c1ccc(Cl)s1 [Compound 288]	100 to 500 nM	≥ 1000 nM
CNC(=O)c1cc2nc(-c3ccccn3)n([C@H]3CCC[C@@H](NC(=O)c4ccc(Br)s4)C3)c2cc1Cl [Compound 238]	100 to 500 nM	≥ 1000 nM
CNC(=O)c1cc2nc(-c3ccccn3)n([C@H]3CCC[C@@H](NC(=O)c4ccc(Cl)s4)C3)c2cc1O [Compound 240]	< 100 nM	500 to 1000 nM
CCCNC(=O)c1ccc2c(c1)nc(-c1ccccn1)n2[C@@H]1CCC[C@H](NC(=O)c2ccc(Br)s2)C1 [Compound 204]	100 to 500 nM	≥ 1000 nM

SMILES	IC50 (BCAT2)	IC50 (BCAT1)
CNC(=O)c1ccc2c(c1)nc(-c1cnccn1)n2[C@H]1CCC[C@@H](NC(=O)c2ccc(Br)s2)C1 [Compound 149]	100 to 500 nM	≥ 1000 nM
CNC(=O)c1cc2nc(-c3ncccc3F)n([C@H]3CCC[C@@H](NC(=O)c4ccc(Cl)s4)C3)c2cn1 [Compound 286, 3-((1S,3R)-3-(5-chlorothiophene-2-carboxamido)cyclohexyl)-2-(3-fluoropyridin-2-yl)-N-methyl-3H-imidazo[4,5-c]pyridine-6-carboxamide]	< 100 nM	< 100 nM
O=C(N[C@@H]1CCC[C@H](n2c(-c3ccccn3)nc3cnc(F)cc32)C1)c1ccc(Br)s1 [Compound 302]	< 100 nM	500 to 1000 nM
CNC(=O)c1ccc2c(c1)nc(-c1ccccc1C#N)n2[C@H]1CCC[C@@H](C(=O)Nc2ccccc2)C1 [Compound 203]	> 1000 nM	≥ 1000 nM
CNC(=O)c1ccc2c(c1)nc(-c1c(O)ccc(F)c1F)n2[C@H]1CCC[C@@H](NC(=O)c2ccc(Br)s2)C1 [Compound 180]	< 100 nM	500 to 1000 nM
CNC(=O)c1ccc2c(c1)nc(-c1cccc(F)c1)n2C1CCCN(C(=O)Nc2ccc(Br)s2)C1 (stereo not shown) [Compound 229]	> 1000 nM	≥ 1000 nM
CNC(=O)c1cc2nc(-c3ccccn3)n([C@H]3CCC[C@@H](NC(=O)c4ccc(Cl)s4)C3)c2cc1Cl [Compound 235]	500 to 1000 nM	≥ 1000 nM
CNC(=O)c1ccc2c(c1)nc(-c1cccc(F)c1)n2C1CCCN(C(=O)Nc2cccs2)C1 (stereo not shown) [Compound 228]	> 1000 nM	≥ 1000 nM
N#Cc1ccc2c(c1)nc(-c1ccccn1)n2[C@H]1CCC[C@@H](NC(=O)c2ccc(Br)s2)C1 [Compound 194]	< 100 nM	≥ 1000 nM
O=C(N[C@@H]1CCC[C@H](n2c(-c3ccccn3)nc3cccnc32)C1)c1ccc(Br)s1 [Compound 280]	100 to 500 nM	≥ 1000 nM
CNC(=O)c1ccn2c(C3CCCC(NC(=O)c4ccc(Br)s4)C3)c(-c3ccccc3)nc2c1 (stereo not shown) [Compound 303]	100 to 500 nM	≥ 1000 nM
CNC(=O)c1ccc2c(c1)nc(-c1ccccn1)n2[C@H]1CCC[C@@H](NC(=O)c2sc(Cl)cc2Cl)C1 [Compound 242]	> 1000 nM	≥ 1000 nM
CNC(=O)c1ccc2c(c1)nc(-c1ccccn1)n2C1CCCN(C(=O)Nc2cccc(Cl)c2)C1 (stereo not shown) [Compound 217]	> 1000 nM	≥ 1000 nM
CNC(=O)c1ccc2c(c1)nc(-c1ccccc1F)n2[C@H]1CCC[C@@H](C(=O)Nc2ccccc2)C1 [Compound 202]	> 1000 nM	≥ 1000 nM
CNC(=O)c1ccc2c(c1)nc(-c1ccc(O)cn1)n2[C@H]1CCC[C@@H](NC(=O)c2ccc(C#N)s2)C1 [Compound 173]	> 1000 nM	≥ 1000 nM
CNC(=O)c1ccc2c(c1)nc(-c1cccc(F)c1)n2C1CCCN(C(=O)Nc2ccccc2Cl)C1 (stereo not shown) [Compound 227]	> 1000 nM	≥ 1000 nM
